Assay [1] concerns second-stage juveniles (J2) of M. incognita. The assay can be described thus: in vitro bioassay against second-stage juveniles (J2), 48 hours' exposure. The assay is classed as in vivo. The note with it: for % paralyzed namatodes: 0.17 g/L (of each compound in the composition). On the procedure:
FIG. 1—effect of the aqueous crude extracts of seeds of antagonistic plants on (J2) of M. incognita. The bars represent the percentage of live nematodes after 48 hours' exposure. Concentration of 1 mg of each extract for a final volume of 0.3 mL and 100 second-stage juveniles was used in the bioassay in triplicate, having distilled water as negative control. […]
(§1) FIG. 9—(A) Bioassay showing the effect of the commercial compounds on second-stage juveniles of M. incognita after 48 hours' exposure. 1—Control dH20, 2—DECE, 3—Glycose 10%, 4—Glycose 20%, 5—D-Pinitol (80 ug), 6—D-Pinitol (150 ug), 7—L-canavanina (80 ug), 8—L-canavanina (150 ug), 9—palmitic acid (80 ug), 10—palmitic acid (150 ug), 11—citric acid (80 ug), 12—citric acid (150 ug), 13—malic acid (80 ug), 14—malic acid (150 ug), 15—cis-aconitic acid (80 ug), 16—cis-anonitic acid (150 ug), 17—trans-anonitic acid (80 ug), 18—trans-aconitic acid (150 ug), 19—50 mM Tris/HCl pH 8, 20—50 mM acetic acid pH 5, 21—L-phenylamine (80 ug), 22—L-phenylamine (150 ug), 23—L-methionine (80 ug), 24—L-methionine (150 ug), 25—L-tryptophan (80 ug), 26—L-tryptophan (150 ug), 27—S-carboxymethylcistein (80 ug), 28—S-carboxymethylcisteine (150 ug), 29—Zantotoxine (80 ug), 30—Zantotoxine (150 ug), and 31—Glucose 20%+L-canavanine (15)ug). B—Evaluation of the effect of the different commercial compounds after the recovery assay using distilled water.
FIG. 10—(A) Bioassay showing the effect of the commercial compounds and their compositions on second-stage juveniles of M. incognita […] after 48 hours' exposure. C+ positive control (extract); C—: negative control (water); 2: palmitic acid; 3: S-carboxymethylcisteine; 4: trans-aconitic acid; 5: glucose. […] (B)—Evaluation of the effect of the different commercial compounds and their compositions after the recovery assay using distilled water. C+ positive control (extract); 2: palmitic acid; 3: s-carboxymethylcisteine; 4: trans-aconitic acid; 5: glucose.

A further assay deals with J2 of M. incognita. In words: recovery assay using distilled water, certifying nematicidal or nematostatic effect. The format is in vivo. As to the method:
as §1
FIG. 10—(A) Bioassay showing the effect of the commercial compounds and their compositions on second-stage juveniles of M. incognita […] after 48 hours' exposure. C+ positive control (extract); C—: negative control (water); 2: palmitic acid; 3: S-carboxymethylcisteine; 4: trans-aconitic acid; 5: glucose. Concentrations of the compositions: 3+4, 3+5=0.25 g/L (each active compound of the composition); 3+4+5=0.17 g/L each active compound of the composition. (B)—Evaluation of the effect of the different commercial compounds and their compositions after the recovery assay using distilled water. C+ positive control (extract); 2: palmitic acid; 3: s-carboxymethylcisteine; 4: trans-aconitic acid; 5: glucose. Concentrations of the compositions: 3+4, 3+5, 4+5=0.25 g/L (each active compound of the composition); 3+4+5=0.17 g/L each active compound of the composition.

In the case of `CO[C@H]1[C@H](O)[C@@H](O)[C@@H](O)[C@H](O)[C@@H]1O` [D-pinitol], the J2 paralyzed result in assay [1] (80 μg/300 μL) and in assay [1] (150 μg/300 μL) was “did not exhibit any toxic effect” throughout.

On to `N=C(N)NOCC[C@H](N)C(=O)O` [L-canavanine], for which the “juveniles remaining paralyzed after the recovery assay (nematicidal activity)” value in the assay on J2 of M. incognita (105 μg/300 μL) is listed as 25%. Moreover, the J2 paralyzed result in assay [1] (80 μg/300 μL) was “did not exhibit any nematotoxic activity”.

As for `N[C@@H](Cc1ccccc1)C(=O)O` [L-phenylamnine], the J2 paralyzed entry in assay [1] (80 μg/300 μL) and in assay [1] (150 μg/300 μL) was “not capable of affecting the J2” throughout.

With `N[C@@H](Cc1c[nH]c2ccccc12)C(=O)O` [L-triptofane], the J2 paralyzed entry in assay [1] (80 μg/300 μL) and in assay [1] (150 μg/300 μL) was “not capable of affecting the J2” throughout.

Consider `COc1c2occc2cc2ccc(=O)oc12` [Xantotoxin], for which the “J2 recovering the mobility after the recovery test” value (“J2 recovering the mobility” for short) in the assay with J2 of M. incognita (80 μg/300 μL) and in the assay on J2 of M. incognita (150 μg/300 μL) was “did not recover the mobility” each time. The J2 paralyzed in assay [1] (80 μg/300 μL) and in assay [1] (150 μg/300 μL) was 87% throughout.

For `O=C(O)/C=C(/CC(=O)O)C(=O)O` [cis-aconitic acid], the “nematicidal activity after the recovery assay” value in the assay with J2 of M. incognita (150 μg/300 μL) is reported as 40%. Moreover, the J2 paralyzed entry in assay [1] (80 μg/300 μL) is on record as “very low percentage”.

On to `O=C(O)CC(O)(CC(=O)O)C(=O)O` [citric acid], for which the “nematicidal activity after the recovery assay” value in the assay with J2 of M. incognita (150 μg/300 μL) came to 25%. For the same compound, the J2 paralyzed entry in assay [1] (80 μg/300 μL) is listed as “very low percentage”.

For `O=C(O)CC(O)C(=O)O` (stereo not drawn) [malic acid], in the assay on J2 of M. incognita (150 μg/300 μL), the “nematicidal activity after the recovery assay” value is 18%. Besides, the J2 paralyzed result in assay [1] (80 μg/300 μL) is on record as “very low percentage”.

For `CCCCCCCCCCCCCCCC(=O)O` [palmitic acid], the “J2 recovering the mobility” value in the assay with J2 of M. incognita (80 μg/300 μL) and in the assay on J2 of M. incognita (150 μg/300 μL) was 90% throughout. The J2 paralyzed in assay [1] (80 μg/300 μL) is 98%.

With `O=C(O)/C=C(\CC(=O)O)C(=O)O` [trans-aconitic acid], the “nematicidal activity after the recovery assay” value in the assay on J2 of M. incognita (150 μg/300 μL) was found to be 98%. In assay [1] (80 μg/300 μL), the J2 paralyzed is given as 90%. In addition, the “% paralyzed namatodes” value in assay [1] is given as 11.12%. Moreover, the “% of paralyzed nematodes” value in assay [1] (0.25 g/L (of each compound in the composition)) came out at 27.08%.

In the case of S-carboxymethylcisteine, the “J2 recovering the mobility” value in the assay on J2 of M. incognita (80 μg/300 μL) and with J2 of M. incognita (150 μg/300 μL) was “most J2 recovering the movement” throughout. Also, the J2 paralyzed result in assay [1] (80 μg/300 μL) and in assay [1] (150 μg/300 μL) was “about 90%” each time. Moreover, in assay [1], the “% paralyzed namatodes” value is given as 43.03%.

Source of the values: US10687529B2, “Nematotoxic composition of synergistic effect, use of a nematotoxic composition of synergistic effect” (EMPRESA BRASILEIRA DE PESQUISA AGROPECUARIA-EMBRAPA, priority 2012, dated 2020).
